Key:
eHsp90 [1] = assay: Flow cytometry uptake of fluor-tethered Hsp90 inhibitors by T cells from human PBMCs; assay type: cell-based
Protocol: T-cell activation: PBMC aliquots (ZenBio SER-PBMC-F) were washed in RPMI-1640 with 10% FBS and PSG and then rested overnight in a T-75 flask. The suspended cells were then transferred to a fresh flask and activated in fresh RPMI-1640/10% FBS/PSG by 3:20,000 anti-CD3 (BioLegend 317303), 3:20,000 anti-CD28 (BioLegend 302913), and 1:10,000 (30 IU/mL) human IL-2 (CST 8907SC) and incubated for up to 72 hours. In the experiments with longer activation, samples were diluted 1:3 into fresh media containing hIL-2 at 72 hours post initial stimulation with CD3/CD28 antibodies.
Flow Cytometry: The activated/rested cells were plated into a 96-well round bottom plate and pelleted at low speed. Cells were resuspended in chilled media containing titrated HS-131 or HS-198 (in 1% DMSO) and stained for 30 minutes at RT. Fluorochrome tagged inhibitors and media were washed away with a PBS wash, followed by a PBS wash containing 3% NMS. Surface antibody stains were performed in 3% NMS/PBS for 30 minutes followed by PBS washes (2x). Samples were analyzed on BD FACSCanto II flow cytometer. Permeabilized samples were prepared as previously described followed by fixation in 4% Formaldehyde/PBS overnight at 4° C. Sample analysis was performed with Flowing Software and FlowJo.
A hallmark of T cell function is to proliferate rapidly in response to antigen presentation along with appropriate cytokine and costimulatory signaling. This leads to the induction of the chaperone machinery which is essential in facilitating this process. In some respects, antigen induced T cell proliferation may be analogous to oncogene driven metastasis. Therefore, to investigate whether proliferating T cells similarly express eHsp90 during T cell activation, their ability to absorb fluor-tethered Hsp90 inhibitors following an anti-CD3/CD28 challenge was examined (see. FIGS. 2A-2E). The structures of two types of fluor-tethered Hsp90 inhibitors (HS-131 and […]) that were used in the present studies are shown in FIG. 2A. […]

eHsp90 [2] = assay: In vivo tracking of eHsp90 expression in CIA mouse model of RA (flow cytometry, CryoViz imaging); conditions: 6 hours post tail vein injection, CD4 and CD8 T cells (FIG. 5B)
Protocol: FIG. 5A is a schematic of CIA mouse model of RA experimental design, wherein mice were inoculated with CIA on day 0) and 21. […] 6-hours post treatment mice were whole body cryopreserved. […] Gated regions indicate CD4 and CD8 T-Cell populations isolated from individual mice. eHsp90 expression in CD4 and CD8 T cells 6 hours post HS-131 or HS-198 treatment. N=3+SD. Experiments represent 3 biological replicates.
CIA Disease: Collagen was prepared at 4 mg/ml in 0.01 N acetic acid. Equal volumes of 4 mg/ml collagen and 5 mg/ml Freund's complete adjuvant were emulsified by hand mixing with syringes for approximately 5 min, at which point a bead of this material holds its form when placed in water. On study days 0 and 21, animals were anesthetized with isoflurane and given intradermal injections of a total of 400 μg of type II collagen in Freund's complete adjuvant at the base of the tail.
CryoViz™ Imaging: Whole mice were imaged at 10.23 μm×10.23 μm in-plane resolution using an Olympus MVX-10 microscope with a 1X objective and 0.63× magnification and 40 μm section thickness, using the Cryo Viz™ (BioInVision, Inc., Cleveland, USA). CryoViz™ is a fully automated, serial sectioning-and-imaging system which provides 3-dimensional, tiled, microscopic anatomical bright field and molecular fluorescence images over large fields-of-view such as a whole mouse. Images were acquired using a dual band FITC/TxRed fluorescence filter (Chroma, Inc., Rockingham, VT), a liquid crystal RGB filter and a low-noise monochrome camera. Raw images acquired by the Cryo Viz™ were processed to generate 3D color anatomical brightfield and molecular fluorescence volumes using the Cryo Viz™ Preprocessor software (BioIn Vision, Inc., Cleveland, Ohio). These 3D volumetric image data were then processed using the CryoViz™ 3D Visualizer software (BioInVision, Inc., Cleveland, USA) to obtain 3D reconstructed brightfield and fluorescence volume renderings and movies with 2D slice cutaway animations, showing the 2D/3D biodistribution of TxRed labeled HS-131 within the mouse volume.
This was consistently seen in cell culture, tumor cell xenografts and mouse models of spontaneous metastatic disease (Barrott et al. Chem Biol 20. 1187-1197 (2013)). […] To determine if this phenomenon occurred within the context of a fully functional immune system, the collagen induced arthritic (CIA) mouse model of human rheumatoid arthritis (RA) was utilized (Rice et al. Arthritis Rheum 58. 3765-3775 (2008)). Mice (DBA/IlacJ ˜8 weeks old) reliably develop polyarthritis when immunized against bovine type II collagen (Scarneo et al. Arthritis Res Ther 21, 292 (2019): Campbell et al., Ann Rheum Dis 56, 364-368 (1997)). The disease that occurs is usually non-symmetric, and any combination of paws/joints may be affected. Mice were injected […] with bovine collagen at Day (and then again 21 days later (FIG. 5A). This second injection triggered the development of the CIA related symptoms over the next several days within the joints. A primary mediator of local inflammatory responses in autoimmunity are invading T cell populations recognizing foreign antigens. To determine if invading T cells at sites of active disease expressed eHsp90, the animals were injected with HS-131 or HS-198. This was done at the peak of RA symptoms following the second immune challenge. After 6 hours, the animals were euthanized, immediately cryo-frozen in liquid nitrogen and cryo-sectioned (see, FIG. 5A).
Approximately, 500 40 μm slices were made and each slice imaged with both bright field and by fluorescence at Ex640 nm/Em680 nm. Evaluation of the biodistribution was then made by histological examination of individual slices and after in silico reconstruction of the entire mouse anatomy (see, FIGS. 5B-5E).

Cc1nn(-c2ccc(C(=O)N(C)C)c(NCCCOCCOCCOCCOCCOCCCNCc3ccc(C(=C\C=C4/N(CCCCS(=O)(=O)O)c5ccccc5C4(C)C)/C=C/C4=[N+](CCCCS(=O)(=O)[O-])c5ccccc5C4(C)C)cc3)c2)c2c1C(=O)CC(C)(C)C2 [HS-198]
uptake of inactive analogue by stimulated T cells (eHsp90 [1]; 10 μM (FIG. 2D)): minimal uptake | probe signal (eHsp90 expression) in T cells of PBMC populations from CIA mice by flow cytometry (eHsp90 [2]): No signal

CC(C)c1cc(-c2n[nH]c(=O)n2-c2ccc3c(ccn3C)c2)c(O)cc1O [ganetespib, reference compound]
fluor signal on competition with Hsp90 inhibitor (eHsp90 [1]; saturating dose, 10-fold excess of ganetespib over 10 μM HS-131 (FIG. 2D)): effectively blocked

Reference: US20240299358A1, “COMPOSITIONS AND METHODS FOR DIAGNOSIS AND TREATMENT OF AUTOIMMUNE DISEASES” (DUKE UNIVERSITY, priority 2021, published 2024)
